Reference: PubChem BioAssay AID2060615 (Molecular Pharmacology Branch, DTP, NCI, 2025)
Where “and” joins values, the source holds several entries; their conditions need not be identical. Identical values can stand only once.

System: 496974-208-R-J2-PDC complex spheroids, growth % test/control
Experiment: Anticancer human tumor 496974-208-R-J2-PDC patient-derived pancreatic carcinoma cell line growth inhibition [CLK]
Settings: for viability, T/C: stronger effect = lower value
Description: A high-throughput screen of multi-cell type tumor spheroids was designed to identify active combinations of […] and targeted small molecules. Complex spheroids include a stromal component modeled by human endothelial cells (HUVEC) and fibroblasts modeled by human mesenchymal stem cells (MSCs). The concentration ranges selected for each drug and investigational agent were based upon clinically achievable concentrations if the clinical Cmax of the agent was known.
Compounds. The drugs and investigational agents: cirtuvivint (SM08502; NSC835563), CC-671 (NSC850746), vemurafenib (NSC761431), tapotoclax (NSC804041), sotorasib (NSC818433), adagrasib (NSC831453), MRTX-1133 (NSC836407), BAY2416964 (NSC825713), copanlisib (NSC816437), inavolisib (NSC800729), abemaciclib (NSC768073), osimertinib (NSC779217), entinostat (NSC756642), eltanexor (KPT-8602, NSC794443), venetoclax (NSC766270), ceralasertib (NSC777638), bortezomib (NSC756655), olaparib (NSC753686), talazoparib (NSC767125), alisertib (NSC759677), peposertib (NSC802822), gemcitabine (NSC613327), 5-fluorouracil (NSC19893), SN-38 (NSC673596), oxaliplatin (NSC266046), paclitaxel (NSC125973), and doxorubicin (NSC123127), were obtained from the National Cancer Institute (NCI) Developmental Therapeutics Program Chemical Repository. The FDA-approved anticancer drug set is available from the Developmental Therapeutics Program at https://dtp.cancer.gov/organization/dscb/obtaining/available plates.htm. […] The stock solutions were prepared in dimethyl sulfoxide (DMSO, Sigma-Aldrich, St. Louis, MO, cat. D2650), except for the platinum complexes which were prepared in saline (Quality Biological, Gaithersburg, MD, cat. 114-055-101), at 800-fold the tested concentration and stored at -70 degrees C prior to their use. All drugs and investigational agents were tested over a range starting from a high concentration at or near the clinical Cmax and decreasing in half-log increments. If the clinical Cmax for an agent had not been determined, the highest concentration tested was 10 microM.
Cell Culture. All cells were maintained in an incubator at 37 degrees C and 5% CO2 with 95% humidity. The PDC lines were cultured according to standard operating procedures established by the NCI PDMR. Briefly, all PDCs were thawed and cultured in Matrigel-coated flasks prepared with a working solution of 1X Ham's F-12 nutrient mix, without supplementation (Invitrogen, Waltham, MA, cat. 11765054), 100 U/mL penicillin-streptomycin (Invitrogen, cat. 15140122), and 2.5% Matrigel (Corning Inc., Corning, NY, cat. 354248) for the first three passages. The 947758-054-R-J2-PDC line was cultured in 6B/Colon 1A media, which includes advanced DMEM/F-12 (Thermo Fisher Scientific, cat. 12634028), 10 mM HEPES (Thermo Fisher Scientific, cat. 15630080), 1X GlutaMAX supplement (Thermo Fisher Scientific, cat. 35050061), 0.1 mg/mL primocin (InvivoGen, cat. ant-pm-2), 10% defined fetal bovine serum, heat inactivated (HyClone Laboratories Inc., cat. SH30070.03HI), 1.25 mM N-Acetyl-L-cysteine (Sigma-Aldrich, cat. A9165), 10 mM nicotinamide (Sigma-Aldrich, cat. N0636), 1X B-27 supplement (Thermo Fisher Scientific, cat. 17504044), 1X N-2 supplement (Thermo Fisher Scientific, cat. 17502048), and 10 microM Y-27632 dihydrochloride (Tocris Bioscience, cat. 1254). The 876862-298-R-J1-PDC was cultured in 6E media, which includes all 6B/Colon 1A media components plus 50% L-WRN conditioned media (ATCC, cat. CRL-3276), 50 ng/mL recombinant human EGF recombinant protein (hEGF; Thermo Fisher Scientific, cat. PHG0311), 10 ng/mL recombinant human fibroblast growth factor 10 (hGFG-10; PeproTech, cat. 100-26), 1 ng/mL recombinant human fibroblast growth factor 2 (hFGF-2; PeproTech, cat. 100-18B), and 1 µM prostaglandin E2 (PGE2; Tocris, cat. 2296). The 227483-062-R1-J1-PDC line was cultured in Panc media, containing all 6E components except hFGF-2, with the addition of 500 nM SB-431542 (Selleckchem, cat. S1067) and 10 nM gastrin (Tocris, cat. 3006). […]
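Further: spheroids exposed to the drugs for 7 days before readout.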
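Wherever viability, T/C is given: 100% = DMSO vehicle control wells.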

CC(=O)O[C@H]1C(=O)[C@@]2(C)[C@H]([C@H](OC(=O)c3ccccc3)[C@]3(O)C[C@H](OC(=O)[C@H](O)[C@@H](NC(=O)c4ccccc4)c4ccccc4)C(C)=C1C3(C)C)[C@]1(OC(C)=O)CO[C@@H]1C[C@@H]2O
viability, T/C (compound 0.0316 µM): 34.8% | viability, T/C (compound 0.1 µM): 28.4% | viability, T/C (compound 0.316 µM): 30.7% | viability, T/C (compound 1 µM): 27.8% | viability, T/C (compound 3.16 µM): 38.6% | viability, T/C (compound 10 µM): 29.1% | IC50 (curve of compound): < 31.6 nM

COc1ccc([C@@H](O)c2cc(-c3ncnc4cc(N5CCOCC5)ccc34)c(F)cc2Cl)nn1
viability, T/C (compound 0.0316 µM): 104% | viability, T/C (compound 0.1 µM): 91.3% and 92.1% | viability, T/C (compound 0.316 µM): 87% and 103% | viability, T/C (compound 1 µM): 77.4% and 80.6% | viability, T/C (compound 3.16 µM): 64.5% and 71.6% | viability, T/C (compound 10 µM): 31.2% and 40.8% | IC50 (curve of compound): 4920 nM and 7030 nM

COc1cccc2c1C(=O)c1c(O)c3c(c(O)c1C2=O)CC(O)(C(=O)CO)CC3OC1CC(N)C(O)C(C)O1 (stereo not drawn)
viability, T/C (compound 0.0316 µM): 73.2% and 85.7% | viability, T/C (compound 0.1 µM): 53.8% and 61.2% | viability, T/C (compound 0.316 µM): 26% and 39.9% | viability, T/C (compound 1 µM): 2.82% and 3.77% | viability, T/C (compound 3.16 µM): 0.71% and 0.67% | viability, T/C (compound 10 µM): 1.39% and 0.57% | IC50 (curve of compound): 121 nM and 177 nM

C=CC(=O)N1CCN(c2nc(=O)n(-c3c(C)ccnc3C(C)C)c3nc(-c4c(O)cccc4F)c(F)cc23)C(C)C1 (stereo not drawn) + CN1CCN(c2cc(C(=O)Nc3cc4cc(-c5cnn(C)c5)ccc4cn3)ccn2)CC1
IC50 (curve of first compound, second compound 0.0316 µM): > 10000 nM | IC50 (curve of first compound, second compound 0.1 µM): > 10000 nM | IC50 (curve of first compound, second compound 0.316 µM): < 31.6 nM | IC50 (curve of first compound, second compound 1 µM): < 31.6 nM | IC50 (curve of first compound, second compound 3.16 µM): < 31.6 nM | IC50 (curve of first compound, second compound 10 µM): < 31.6 nM | viability, T/C (second compound 0.0316 µM, first compound 0.0316 µM): 102% | viability, T/C (second compound 0.0316 µM, first compound 0.1 µM): 114% | viability, T/C (second compound 0.0316 µM, first compound 0.316 µM): 104% | viability, T/C (second compound 0.0316 µM, first compound 1 µM): 120% | viability, T/C (second compound 0.0316 µM, first compound 3.16 µM): 128% | viability, T/C (second compound 0.0316 µM, first compound 10 µM): 99.9% | viability, T/C (second compound 0.1 µM, first compound 0.0316 µM): 90.2% | viability, T/C (second compound 0.1 µM, first compound 0.1 µM): 89.7% | viability, T/C (second compound 0.1 µM, first compound 0.316 µM): 89.2% | viability, T/C (second compound 0.1 µM, first compound 1 µM): 104% | viability, T/C (second compound 0.1 µM, first compound 3.16 µM): 101% | viability, T/C (second compound 0.1 µM, first compound 10 µM): 78.4% | viability, T/C (second compound 0.316 µM, first compound 0.0316 µM): 8.25% | viability, T/C (second compound 0.316 µM, first compound 0.1 µM): 9.83% | viability, T/C (second compound 0.316 µM, first compound 0.316 µM): 8.72% | viability, T/C (second compound 0.316 µM, first compound 1 µM): 10.3% | viability, T/C (second compound 0.316 µM, first compound 3.16 µM): 7.48% | viability, T/C (second compound 0.316 µM, first compound 10 µM): 5.87% | viability, T/C (second compound 1 µM, first compound 0.0316 µM): 0.39% | viability, T/C (second compound 1 µM, first compound 0.1 µM): 0.6% | viability, T/C (second compound 1 µM, first compound 0.316 µM): 1.15% | viability, T/C (second compound 1 µM, first compound 1 µM): 0.78% | viability, T/C (second compound 1 µM, first compound 3.16 µM): 1% | viability, T/C (second compound 1 µM, first compound 10 µM): 3.71% | viability, T/C (second compound 3.16 µM, first compound 0.0316 µM): 0.44% | viability, T/C (second compound 3.16 µM, first compound 0.1 µM): 1.82% | viability, T/C (second compound 3.16 µM, first compound 0.316 µM): 0.7% | viability, T/C (second compound 3.16 µM, first compound 1 µM): 0.75% | viability, T/C (second compound 3.16 µM, first compound 3.16 µM): 0.83% | viability, T/C (second compound 3.16 µM, first compound 10 µM): 2.13% | viability, T/C (second compound 10 µM, first compound 0.0316 µM): 0.31% | viability, T/C (second compound 10 µM, first compound 0.1 µM): 0.35% | viability, T/C (second compound 10 µM, first compound 0.316 µM): 0.36% | viability, T/C (second compound 10 µM, first compound 1 µM): 0.46% | viability, T/C (second compound 10 µM, first compound 3.16 µM): 2.05% | viability, T/C (second compound 10 µM, first compound 10 µM): 0.94%
